Experiments:
Hep G2 cells [1] = experiment: Free fatty acids (FFA)-induced lipid accumulation and Oil Red determination; type: cell-based, Human; details: Oil Red; for attenuated lipid accumulation in the cells: vs control group; for cellular lipid accumulation as compared with the control group: FIG. 2
Description: (§1) Human hepatoma cell line Hep G2 was cultured in Dulbecco's modified Eagle's medium high glucose (DMEM-HG) containing 10% fetal bovine serum, 100 U/ml penicillin and […] streptomycin at 37° C. under 5% CO2 in an incubator.
1×10^5 Hep G2 cells were seeded in a 96-well plate and incubated with serum-free cellular medium containing 1% BSA for 24 hrs. To induce lipid accumulation, the above cells were seeded in a mixture of 0.33 mM palmitic acid and 0.66 mM oleic acid for 24 hrs, which were dissolved in serum-free medium with or without Antrodin. After lipid accumulation and Antrodin treatment, cells were washed with PBS and then fixed by 4% paraformaldehyde for 15 mins at room temperature. The fixed cells were washed with PBS for 5 mins, and then rinsed with 60% isopropanol twice; followed by incubation with 1 ml Oil Red kit for 10 mins. For quantitative analysis of cellular lipids, dye in the cellular lipids were extracted with 0.5 ml of isopropanol, and then measured at 490 nm.

Hep G2 cells [2] = experiment: Cell viability test (alamar blue); type: cell-based, Human; details: concentration less than 100 μg/ml, 72 hrs
Description: as §1
Hepasim® was a mixture from Antrodia cinnamomea mycelia, which was prepared from water or organic solvent extract of Antrodia cinnamomea mycelia. The extract of Antrodia cinnamomea mycelia comprised Antrodin B-E. 5×10^3 Hep G2 cells were seeded in a 96-well plate for 24 hrs, and then incubated with different concentrations of Hepasim®, Antrodin B, Antrodin C and Antrodin D for 72 hrs. After treatment, cells were incubated with alamar blue (10%, w/v) for 3 hrs, and then was read at […]. Cell viability was calculated by [(OD570−OD600)test/(OD570−OD600)control]×100.

[3] = test system: C57BL/6J (B6) mice on high fat diet; experiment: High fat diet mice, treating process (20 weeks, dosing 11th to 20th week); type: in vivo; parameters: Malondiadehyde in liver: unit not given here; details: for body weight: 11th to 20th week, high fat diet 20 weeks; for reduction of body weight increasing rate as compared with the high fat diet group: at the end of 20 weeks; for ALT / AST / TC / TG / attenuated the increased ALT as compared with the high fat diet group / attenuated the increased AST as compared with the high fat diet group / attenuated the increased TC as compared with the high fat diet group / attenuated the increased TG as compared with the high fat diet group: serum; for ALT / AST / TC / TG / MDA level increasing rate in liver / Malondiadehyde in liver / Plasma insulin / blood glucose / liver hypertrophy / liver weight / plasma insulin level increasing rate was reduced by / Plasma insulin increasing rate / body weight increasing rate / lipid droplets in the liver, hematoxylin-eosin staining of liver sections / MDA level increasing rate was reduced by / liver appearance: pale color (phenomenon of fatty liver) / attenuated the increased ALT as compared with the high fat diet group / attenuated the increased AST as compared with the high fat diet group / attenuated the increased TC as compared with the high fat diet group / attenuated the increased TG as compared with the high fat diet group / attenuated the increased blood sugar as compared with the high fat diet group: treating process; for Plasma insulin increasing rate / body weight increasing rate: relative to control group; for lipid droplets in the liver, hematoxylin-eosin staining of liver sections: FIG. 5; for MDA level increasing rate was reduced by: liver; for liver appearance: pale color (phenomenon of fatty liver): FIG. 4
Description: 2.1 8-week-old male C57BL/6J (B6) mice were used, which were purchased from the National Laboratory Animal Center (Taipei, Taiwan). All animals were maintained at an animal room at a temperature of 23±2° C., and 12 hrs light/12 hrs dark cycle.
According to the “Healthy food of liver health effects assessment” (Taiwan Food and Drug Administration, Taiwan), all 8-week test mice were randomized into a control group, a high fat diet group, and test (high fat diet with different dosage of Hepasim®, Antrodin B or Antrodin C) groups. Each group contained 3-4 mice.
The control group was given 20 weeks of normal diet, and all other groups were given 20 weeks of high fat diet. […] Body weights of the mice in each group were recorded weekly. At the end of 20 weeks, all mice were sacrificed by CO2 overdose. At the time of death of the mouse, blood was collected from the heart of the mouse. To separate the serum, whole blood was centrifuged in a refrigerated centrifuge at 15,700×g at 4° C. for 5 minutes. Livers were removed from the mice, and then rinsed in ice-cold saline. Liver samples were divided for various assays and histological assessment.
Stored liver samples (0.1 g) were homogenized in 1 ml PBS, and then was centrifuged in a refrigerated centrifuge at 15,700×g at 4° C. for 5 minutes to remove pellets. The levels of aspartate aminotransferase (AST), alanine aminotransferase (ALT), total cholesterol (TC) and total triglyceride (TG) of the serum and the liver were measured by corresponding detection kits (Randox). Blood sugar in whole blood was detected by blood sugar machine (Roche). Plasma insulin was detected by Insulin mouse ELISA kit (Invitrogen). Malondialdehyde (MDA) level in liver was measured by using Lipid Peroxidation Assay Kit (Colorimetric/Fluorometric) (abcam, #ab118977). Liver samples were divided for various assays and histological assessment.
The livers were removed from the mice, and then fixed in 10% neural formalin. Liver samples were dehydrated by placing in ethanol at different concentrations (30, 50, 70, 95, 99.5%) and xylene. Finally, liver samples were embedded in paraffin section. For hematoxylin-eosin staining, the liver tissue sections were placed in xylene for 30 minutes for dewaxing, and then sequentially placed in 99.5% ethanol for 10 minutes, 90% ethanol for 5 minutes, 70% ethanol for 1 minute, 50% ethanol for 1 minute and 30% ethanol for 1 minutes for rehydration, and then soaked in distilled water for 10 minutes. To stained nuclei, the samples were soaked in hematoxylin solution for 4 minutes, and then soaked in distilled water for several minutes, followed by soaking in eosin solution for 2 minutes to stain cytoplasm, and then washed in distilled water for 10 minutes. Finally, samples were sequentially placed in 90% ethanol for 2 minutes, 99.5% ethanol for 2 minutes and xylene for 20 minutes, and then mounted by mounting medium.
All results were expressed as mean±SD. Significant differences were analyzed with two-tailed Student's t-test. P<0.05 represents the statistical difference between two groups.

[4] = "10%" Antrodin (so in the source)
[5] = "30%" Antrodin (so in the source)
[6] = treated with "10%" Antrodin (so in the source)
[7] = treated with "30%" Antrodin (so in the source)

CC(C)=CCOc1ccc([C@H]2C(=O)N(O)C(=O)[C@@H]2CC(C)C)cc1 (relative stereo) [Antrodin D, 3R*,4S*-1-hydroxy-3-isobutyl-4-[4-(3-methyl-2-butenyloxy)phenyl]pyrrolidine-2,5-dione]
attenuated lipid accumulation in the cells (Hep G2 cells [1]; 100 μg/ml): 18.6% | cellular lipid accumulation as compared with the control group (Hep G2 cells [1]): significantly reduced | cytotoxicity to Hep G2 cells (Hep G2 cells [2]): no cytotoxicity

CC(C)=CCOc1ccc(C2=C(CC(C)C)C(=O)NC2=O)cc1 [Antrodin B, 3-isobutyl-4-[4-(3-methyl-2-butenyloxy)phenyl]-1H-pyrrol-2,5-dione]
body weight ([3]; 10 mg/Kg oral gavage every day): 37.14 ± 5.18 g | reduction of body weight increasing rate as compared with the high fat diet group ([3]; 10 mg/Kg): 14% | ALT ([3]; 10 mg/Kg): 29.36 ± 6.17 U/l | AST ([3]; 10 mg/Kg): 44.39 ± 7.06 U/l | TC ([3]; 10 mg/Kg): 266.61 ± 25.99 mg/dL | TG ([3]; 10 mg/Kg): 189.57 ± 9.35 mg/dL | MDA level increasing rate in liver ([3]; 10 mg/Kg): 202.8% | Malondiadehyde in liver ([3]; 10 mg/Kg): 2.15 ± 0.58 | Plasma insulin ([3]; 10 mg/Kg): 0.99 ± 0.41 ng/mL | blood glucose ([3]; 10 mg/Kg): 367.20 ± 34.40 mg/dL | liver hypertrophy ([3]; 10 mg/Kg): significantly inhibited | liver weight ([3]; 10 mg/Kg): 1.39 ± 0.33 g | plasma insulin level increasing rate was reduced by ([3]; 10 mg/Kg): 223.6% | Plasma insulin increasing rate ([3]; 10 mg/Kg): 80% | body weight increasing rate ([3]; 10 mg/Kg): 21.1% | body weight ([3]; 30 mg/Kg oral gavage every day): 41.82 ± 2.61 g | ALT ([3]; 30 mg/Kg): 29.38 ± 11.45 U/l | AST ([3]; 30 mg/Kg): 53.64 ± 9.99 U/l | TC ([3]; 30 mg/Kg): 287.73 ± 48.26 mg/dL | TG ([3]; 30 mg/Kg): 187.77 ± 6.53 mg/dL | MDA level increasing rate in liver ([3]; 30 mg/Kg): 97.2% | Malondiadehyde in liver ([3]; 30 mg/Kg): 1.4 ± 0.56 | Plasma insulin ([3]; 30 mg/Kg): 1.84 ± 0.93 ng/mL | blood glucose ([3]; 30 mg/Kg): 389.00 ± 41.63 mg/dL | liver weight ([3]; 30 mg/Kg): 1.5 ± 0.25 g | plasma insulin level increasing rate was reduced by ([3]; 30 mg/Kg): 69.1% | Plasma insulin increasing rate ([3]; 30 mg/Kg): 234.5% | body weight increasing rate ([3]; 30 mg/Kg): 36.3% | lipid droplets in the liver, hematoxylin-eosin staining of liver sections [3, 4]: significantly attenuated | lipid droplets in the liver, hematoxylin-eosin staining of liver sections [3, 5]: significantly attenuated | MDA level increasing rate was reduced by [3, 6]: 24.8% | MDA level increasing rate was reduced by [3, 7]: 129.6% | liver appearance: pale color (phenomenon of fatty liver) [3]: not observed | attenuated lipid accumulation in the cells (Hep G2 cells [1]; 10 μg/ml): 12.8% | attenuated lipid accumulation in the cells (Hep G2 cells [1]; 100 μg/ml): 9.3% | cellular lipid accumulation as compared with the control group (Hep G2 cells [1]): significantly reduced | cytotoxicity to Hep G2 cells (Hep G2 cells [2]): no cytotoxicity

CC(C)=CCOc1ccc(C2=C(CC(C)C)C(=O)N(O)C2=O)cc1 [Antrodin C, 3-isobutyl-4-[4-(3-methyl-2-butenyloxy)phenyl]-1H-pyrrol-1-ol-2,5-dione]
body weight ([3]; 10 mg/Kg oral gavage every day): 40.06 ± 4.74 g | reduction of body weight increasing rate as compared with the high fat diet group ([3]; 10 mg/Kg): 4.5% | ALT ([3]; 10 mg/Kg): 22.99 ± 5.15 U/l | AST ([3]; 10 mg/Kg): 38.17 ± 5.53 U/l | TC ([3]; 10 mg/Kg): 189.36 ± 58.12 mg/dL | TG ([3]; 10 mg/Kg): 179.28 ± 15.54 mg/dL | attenuated the increased ALT as compared with the high fat diet group ([3]; 10 mg/Kg): ~12.3% | attenuated the increased AST as compared with the high fat diet group ([3]; 10 mg/Kg): ~39.35% | attenuated the increased TC as compared with the high fat diet group ([3]; 10 mg/Kg): ~66.83% | attenuated the increased TG as compared with the high fat diet group ([3]; 10 mg/Kg): ~11.57% | MDA level increasing rate in liver ([3]; 10 mg/Kg): 140.8% | Malondiadehyde in liver ([3]; 10 mg/Kg): 1.71 ± 0.59 | Plasma insulin ([3]; 10 mg/Kg): 1.77 ± 0.85 ng/mL | attenuated the increased blood sugar as compared with the high fat diet group ([3]; 10 mg/Kg): about 34.78% | blood glucose ([3]; 10 mg/Kg): 351.80 ± 85.00 mg/dL | liver hypertrophy ([3]; 10 mg/Kg): significantly inhibited | liver weight ([3]; 10 mg/Kg): 1.06 ± 0.25 g | plasma insulin level increasing rate was reduced by ([3]; 10 mg/Kg): 81.8% | Plasma insulin increasing rate ([3]; 10 mg/Kg): 221.8% | body weight increasing rate ([3]; 10 mg/Kg): 30.6% | body weight ([3]; 30 mg/Kg oral gavage every day): 37.50 ± 4.80 g | reduction of body weight increasing rate as compared with the high fat diet group ([3]; 30 mg/Kg): 12.9% | ALT ([3]; 30 mg/Kg): 17.61 ± 3.90 U/l | AST ([3]; 30 mg/Kg): 32.33 ± 2.85 U/l | TC ([3]; 30 mg/Kg): 171.86 ± 40.58 mg/dL | TG ([3]; 30 mg/Kg): 170.63 ± 13.22 mg/dL | attenuated the increased ALT as compared with the high fat diet group ([3]; 30 mg/Kg): ~48.96% | attenuated the increased AST as compared with the high fat diet group ([3]; 30 mg/Kg): ~74.17% | attenuated the increased TC as compared with the high fat diet group ([3]; 30 mg/Kg): ~86.26% | attenuated the increased TG as compared with the high fat diet group ([3]; 30 mg/Kg): ~21.96% | MDA level increasing rate in liver ([3]; 30 mg/Kg): 90.1% | Malondiadehyde in liver ([3]; 30 mg/Kg): 1.35 ± 0.57 | Plasma insulin ([3]; 30 mg/Kg): 1.25 ± 0.71 ng/mL | attenuated the increased blood sugar as compared with the high fat diet group ([3]; 30 mg/Kg): about 79.48% | blood glucose ([3]; 30 mg/Kg): 298.60 ± 38.93 mg/dL | liver hypertrophy ([3]; 30 mg/Kg): significantly inhibited | liver weight ([3]; 30 mg/Kg): 1.05 ± 0.24 g | plasma insulin level increasing rate was reduced by ([3]; 30 mg/Kg): 176.3% | Plasma insulin increasing rate ([3]; 30 mg/Kg): 127.3% | body weight increasing rate ([3]; 30 mg/Kg): 22.2% | lipid droplets in the liver, hematoxylin-eosin staining of liver sections [3, 4]: significantly attenuated | lipid droplets in the liver, hematoxylin-eosin staining of liver sections [3, 5]: significantly attenuated | MDA level increasing rate was reduced by [3, 6]: 86% | MDA level increasing rate was reduced by [3, 7]: 136.7% | liver appearance: pale color (phenomenon of fatty liver) [3]: not observed | attenuated lipid accumulation in the cells (Hep G2 cells [1]; 10 μg/ml): 20.6% | attenuated lipid accumulation in the cells (Hep G2 cells [1]; 100 μg/ml): 24.1% | cellular lipid accumulation as compared with the control group (Hep G2 cells [1]): significantly reduced | cytotoxicity to Hep G2 cells (Hep G2 cells [2]): no cytotoxicity

Source: patent publication US11510902B2, “Method for preventing or treating non-alcoholic fatty liver disease by antrodins” (Simpson Biotech Co., Ltd., priority 2019, dated 2022)
